Reference: publication PMC4971421, “Redox-Dependent Modulation of T-Type Ca^2+ Channels in Sensory Neurons Contributes to Acute Anti-Nociceptive Effect of Substance P” (Antioxidants & Redox Signaling, 2016)

Columns and labels:
[1] = test system: high-voltage-activated (HVA) Ca^2+ currents in DRG neurons; test: HVA Ca2+ current, whole-cell patch clamp, DRG neurons; type: cell-based, rat; conditions: 1 μM
Procedure: DRG neurons from adult male Sprague–Dawley rats (170–180 g) were dissociated as previously described ([13], [29]) and cultured in DMEM supplemented with GlutaMax I, 10% fetal calf serum, penicillin (50 U/ml), and streptomycin (50 μg/ml) on glass coverslips that were coated with poly-D-lysine for 2–5 days in a humidified incubator (37°C, 5% CO2). No growth factors were added to the culture media. HEK 293 cells were cultured in the same DMEM media; cells were passaged every 2 days. Human NK1 receptor (GenBank accession No. AY462098) complementary DNA (cDNA) was from the Missouri Science and Technology cDNA Resource Center. WtCaV3.1 (GenBank accession No. AF027984), wtCaV3.2 (GenBank accession No. AF051946), CaV3.1Q172H, and CaV3.2H191Q were kindly provided by Dr E. Perez-Reyes (University of Virginia). HEK293 cells were transfected using Lipofectamine 2000 (Invitrogen) according to the manufacturer's instructions. […]
All recordings were made using Multiclamp 700B amplifier in combination with pCLAMP 10.4 software (Molecular Devices). […] T-type calcium currents (LVA) were measured by 50 ms square voltage pulses to −40 mV from a holding potential of −90 mV. HVA currents were measured by 200 ms square voltage pulses to 0 mV from a holding potential of −90 mV.

rat hind paw [2] = test: Hargreaves test, paw withdrawal latency to noxious heat; type: in vivo; conditions: hind-paw injection 50 μl; 0.005–0.5 nmol/site; 8 min after injection
Procedure: For measurement of thermal hyperalgesia, the change in the latency of hind-paw withdrawal in response to noxious heat was recorded using the Hargreaves’ plantar method (Ugo Basile) at 8 min after the hind-paw injection of drugs; the heat source was set to 25% of the maximal intensity.

rat hind paw [3] = test: von Frey test; type: in vivo; conditions: 50 μl; 0.5 nmol/site; filaments 2–15 g; 8 min after injection
Procedure: (§1) For measurement of sensitivity to gentle touch and mechanical hyperalgesia, two methods were used. (i) Cotton swab test was performed as previously described ([53]). Briefly, rats were allowed to acclimate in a cage with a wire mesh bottom for at least 30 min and then were manually probed with a “cotton swab” pulled from a Q-tip (to approximately three times the original size). A swab was applied in a sweeping motion underneath the rats’ paws, and the withdrawal responses were recorded. Five sweeps were applied in each test, with at least 10 s between each sweep; withdrawal score was calculated as a percentage of positive responses. (ii) The von Frey test was performed using a calibrated range of filaments with different bending forces (2, 4, 6, 8, 10, and 15 g; Stoelting Co.). A single filament was applied perpendicularly to the plantar surface of the hind paw for five times, with an interval of 5 s, and it was scored for withdrawal responses. Each force was probed five times, the number of withdrawals out of five trials was counted, and the percentage of withdrawal responses was calculated. Both types of assays were performed 8 min after the hind-paw drug injection.

rat hind paw [4] = test: Cotton swab test (gentle touch); type: in vivo; conditions: 50 μl; 0.5 nmol/site; 8 min after injection
Procedure: as §1

rat hind paw [5] = test: BK-induced nocifensive behavior, pre-injection protocol; type: in vivo; conditions: for BK-induced nociception: 5 min before BK 10 nmol/site
Procedure: Sprague–Dawley rats (body weight, 170–180 g) were grouped randomly and allowed to acclimate for at least 30 min in a transparent observation chamber before the experiment. Animals received a 50-μl intraplantar injection of ST101 (0.001–10 nmol/site), BK (10 nmol/site), RTG (1–10 nmol/site), Z944 (0.05–5 nmol/site), SP (0.5–5 nmol/site), or saline, respectively, into the right hind paw. For evaluation of the acute “spontaneous” pain, animals were video-recorded for 30 min after the injection and protective (“nocifensive”) behavior was analyzed as time spent licking, biting, lifting, and flinching the injected paw. The analyses were performed by an observer who was unaware of treatment allocations. In the pre-injection experiments, the right hind paw of the animal received a pre-injection of 50 μl Z944 (0.05–0.5 nmol/site), RTG (1–10 nmol/site), SP (0.5 nmol/site), Z944 (0.05–0.5 nmol/site)+RTG (1 nmol/site), or saline; 5 min later, on the same paw, the animal received a further 50-μl injection of BK (10 nmol/site) together with the pre-injection drug mix. Nocifensive behavior was analyzed as described earlier.
The in vivo CaV3.2 knock-down was performed as described earlier ([3]) by using the same ODN sequences that were synthesized by SBS Genetech. AS ODNs had the following sequence: […]. The mismatch ODNs of the following sequence were used as a negative control: […]. The mismatch ODN was not complementary to any known nucleotide sequence. ODNs were reconstituted in saline before injection. ODNs (12.5 μg/rat in 10 μl of saline) or saline were injected intrathecally (i.t.) between the L5 and L6 dorsal spinous processes as described earlier ([3], [42]) under isoflurane anesthesia. The treatment was repeated twice daily for 4 days. The pain tests were performed on the next day after the last injection. After behavioral testing, animals were humanly sacrificed; lumbar DRGs were extracted and analyzed for the knock-down efficiency by comparing the Cacna1h mRNA levels in lumbar (L4 to L6) DRGs of the saline-injected, mismatch ODN-injected, and AS ODN-injected animals using RT-PCR. The same Cacna1h and Gapdh primers as in siRNA experiments were used for RT-PCR.

CaV3 = conditions: read-out: IC50, CaV3 inhibition; cited from earlier work
Procedure: (§2) The T-type Ca^2+ current is an important regulator of sensory neuron excitability ([10], [17], [18], [20], [23], [24], [51], [71], [75]). […] Z944 (1 μM) inhibited LVA curren ...

L-type VGCCs = conditions: 1 μM; cited from earlier work
Procedure: as §2

N-type VGCCs = conditions: 1 μM; cited from earlier work
Nav1.5 = conditions: 1 μM; cited from earlier work
hERG channels = conditions: 1 μM; cited from earlier work

CC(C)(C)NC(=O)CN1CCC(CNC(=O)c2cc(F)cc(Cl)c2)CC1 [Z944, N-[[1-[2-(tert-butylamino)-2-oxoethyl]piperidin-4-yl]methyl]-3-chloro-5-fluorobenzamide]
effect on HVA current [1]: without a noticeable effect | paw withdrawal latency on radiant heat exposure (rat hind paw [2]): significantly increased | response to von Frey filament stimulation (rat hind paw [3]): significantly impaired their ability to respond to stimulation | sensitivity to light touch, cotton swab assay (rat hind paw [4]): produced a similar effect | nocifensive behavior produced by hind-paw BK injection in saline- and mismatch ODN-injected animals (rat hind paw [5]; 0.5 nmol/site, BK 10 nmol/site): still significantly attenuated | BK-induced nociception (rat hind paw [5]; pre-injection 0.05 nmol/site): not at 0.05 nmol/site | BK-induced nociception (rat hind paw [5]; pre-injection 0.5 nmol/site): significantly attenuated | IC50 (CaV3): ~50 nM | effect on L-type VGCCs (L-type VGCCs): no significant effect | effect on N-type VGCCs (N-type VGCCs): no significant effect | effect on Nav1.5 (Nav1.5): no significant effect | effect on hERG channels (hERG channels): no significant effect
